Experimental data as given in ChEMBL document CHEMBL1151112, “A rapid and sensitive bioassay involving cultured rat glioma cells to screen for substances capable of elevating intracellular cyclic AMP concentration” (J Nat Prod, 1988).
Calls of active or inactive are those of the source. The calls are words filed in the database; no cut-off is given here.

Columns and labels:
[1] = Induction of morphological transformation of rat ASK cells into astrocytes after 1 hr by light microscopy; assay type: functional; details: read-out: ED50 (the source's name)
ASK = experiment: Induction of morphological transformation of rat ASK cells into astrocytes at 100 ug/ml after 1 hr by light microscopy; assay type: functional, cell-based
[2] = Induction of morphological transformation of rat ASK cells into astrocytes at 2.5 uM after 1 hr by light microscopy; assay type: functional
[3] = Induction of morphological transformation of rat ASK cells into astrocytes at 0.10 uM after 1 hr by light microscopy; assay type: functional
[4] = Induction of morphological transformation of rat ASK cells into astrocytes at 0.5 uM after 1 hr by light microscopy; assay type: functional
[5] = Induction of morphological transformation of rat ASK cells into astrocytes at 0.02 uM after 1 hr by light microscopy; assay type: functional
[6] = Induction of morphological transformation of rat ASK cells into astrocytes at 0.004 uM after 1 hr by light microscopy; assay type: functional
[7] = Induction of cAMP production in rat ASK cells assessed per 10^6 cells at 50 uM after 1 hr by radioimmunoassay; assay type: functional
[8] = Induction of morphological transformation of rat ASK cells into astrocytes at 50 uM after 1 hr by light microscopy in absence of fetal calf serum; assay type: functional
[9] = Induction of morphological transformation of rat ASK cells into astrocytes at 25 uM after 1 hr by light microscopy in absence of fetal calf serum; assay type: functional
[10] = Induction of morphological transformation of rat ASK cells into astrocytes at 50 uM after 1 hr by light microscopy in presence of colchicine; assay type: functional
[11] = Induction of morphological transformation of rat ASK cells into astrocytes at 6.2 uM after 1 hr by light microscopy in absence of fetal calf serum; assay type: functional
[12] = Induction of morphological transformation of rat ASK cells into astrocytes at 25 uM after 1 hr by light microscopy in presence of fetal calf serum; assay type: functional
[13] = Induction of morphological transformation of rat ASK cells into astrocytes at 50 uM after 1 hr by light microscopy in presence of fetal calf serum; assay type: functional
[14] = Induction of morphological transformation of rat ASK cells into astrocytes at 12.5 uM after 1 hr by light microscopy in presence of colchicine; assay type: functional
[15] = Induction of morphological transformation of rat ASK cells into astrocytes at 100 uM after 1 hr by light microscopy in presence of colchicine; assay type: functional
[16] = Induction of morphological transformation of rat ASK cells into astrocytes at 12.5 uM after 1 hr by light microscopy in absence of fetal calf serum; assay type: functional
[17] = Induction of morphological transformation of rat ASK cells into astrocytes at 150 uM after 1 hr by light microscopy in presence of fetal calf serum; assay type: functional
[18] = Induction of morphological transformation of rat ASK cells into astrocytes at 6.2 uM after 1 hr by light microscopy in presence of colchicine; assay type: functional
[19] = Cytotoxicity against rat ASK cells at 150 uM; assay type: cell-based
[20] = Induction of morphological transformation of rat ASK cells into astrocytes at 100 uM after 1 hr by light microscopy in presence of fetal calf serum; assay type: functional
[21] = Induction of morphological transformation of rat ASK cells into astrocytes at 6.2 uM after 1 hr by light microscopy in presence of fetal calf serum; assay type: functional
[22] = Induction of morphological transformation of rat ASK cells into astrocytes at 25 uM after 1 hr by light microscopy in presence of colchicine; assay type: functional
[23] = Induction of morphological transformation of rat ASK cells into astrocytes at 12.5 uM after 1 hr by light microscopy in presence of fetal calf serum; assay type: functional
[24] = Induction of morphological transformation of rat ASK cells into astrocytes at 100 uM after 1 hr by light microscopy in absence of fetal calf serum; assay type: functional

Molecule `CC1=C(/C=C/C(C)=C/C=C/C(C)=C/C=C/C(=O)O)C(C)(C)CCC1` has an EC50 [1] of over 25 µM.
For `COC(C)C1=C(/C=C/C(C)=C/C=C/C(C)=C/C(=O)O)C(C)(C)CC1` (configuration not stated), the EC50 [1] was under 10 µM.
For `CC(/C=C/C12OC1(C)CCCC2(C)C)=C\C=C\C(C)=C\C(=O)O` (configuration not stated), the EC50 [1] was over 25 µM.
Work on `C=C[C@@]1(C)CC(=O)[C@@]23OS(=O)O[C@H]4CCC(C)(C)[C@H]([C@H](O)[C@H](OC(C)=O)[C@@]2(C)O1)[C@]43C` (some centres not stated) yielded an EC50 [1] of 3.12 µM.
In the case of `C=C[C@@]1(C)CC(=O)[C@]2(O)[C@@]3(C)[C@@H](O)CCC(C)(C)[C@@H]3[C@H](O)[C@H](O)[C@@]2(C)O1`, the EC50 [1] is reported as 3.86 µM.
Molecule `C=C[C@@]1(C)CC(O)[C@]2(O)[C@@]3(C)[C@@H](O)CCC(C)(C)[C@@H]3[C@H](O)[C@H](OC(C)=O)[C@@]2(C)O1` (some centres not stated) has an EC50 [1] of 6.53 µM.
For `CC1=C(CC/C(C)=C/C=C/C(C)=C/C(=O)O)C(C)(C)CCC1`, the EC50 [1] was under 10 µM.
`CC(=O)C1=C(/C=C/C(C)=C/C=C/C(C)=C/C(=O)O)C(C)(C)CC1` showed an EC50 [1] of over 25 µM.
With `CC1=C(/C=C/C(C)C/C=C/C(C)=C/C(=O)O)C(C)(C)CCC1` (configuration not stated) the EC50 [1] was 10 µM.
Molecule `C=C[C@@]1(C)CC(=O)[C@@H]2[C@@]3(C)CCCC(C)(C)[C@@H]3[C@H](O)[C@H](OC(C)=O)[C@@]2(C)O1` has an EC50 [1] of over 100 µM.
In the case of `CC(/C=C/C1C(C)CCCC1(C)C)=C\C=C\C(C)=C\C(=O)O` (configuration not stated), the EC50 [1] is reported as under 10 µM.
With `CC(C)=CCC[C@](C)(O)[C@H]1CC[C@]2(C)[C@@H]1[C@H](O)C[C@@H]1[C@@]3(C)CC[C@H](O)C(C)(C)[C@@H]3[C@@H](O[C@@H]3O[C@H](CO)[C@@H](O)[C@H](O)[C@H]3O[C@@H]3O[C@@H](C)[C@H](O)[C@@H](O)[C@H]3O)C[C@]12C` the Activity (ASK) was “inactive”.
In the case of `CC(C)=CCC[C@](C)(O[C@@H]1O[C@H](CO)[C@@H](O)[C@H](O)[C@H]1O)[C@H]1CC[C@]2(C)[C@@H]1[C@H](O)C[C@@H]1[C@@]3(C)CC[C@H](O)C(C)(C)[C@@H]3[C@@H](O[C@@H]3O[C@H](CO)[C@@H](O)[C@H](O)[C@H]3O)C[C@]12C`, the Activity (ASK) is reported as “inactive”.
In the case of `CC(C)=CCC[C@](C)(O[C@@H]1O[C@H](CO)[C@@H](O)[C@H](O)[C@H]1O)[C@H]1CC[C@]2(C)[C@@H]1[C@H](O)C[C@@H]1[C@@]3(C)CC[C@H](O)C(C)(C)[C@@H]3[C@@H](O[C@@H]3O[C@H](CO)[C@@H](O)[C@H](O)[C@H]3O[C@@H]3O[C@@H](C)[C@H](O)[C@@H](O)[C@H]3O)C[C@]12C`, the Activity (ASK) is reported as “inactive”.
With `CC(C)=CCC[C@](C)(O[C@@H]1O[C@H](CO)[C@@H](O)[C@H](O)[C@H]1O)[C@H]1CC[C@]2(C)[C@@H]1[C@H](O)C[C@@H]1[C@@]3(C)CC[C@H](O[C@@H]4O[C@H](CO)[C@@H](O)[C@H](O)[C@H]4O[C@@H]4O[C@H](CO)[C@@H](O)[C@H](O)[C@H]4O)C(C)(C)[C@@H]3CC[C@]12C` the Activity (ASK) was “inactive”.
For `CC(C)=CCC[C@](C)(O[C@@H]1O[C@H](CO[C@@H]2OC[C@@H](O)[C@H](O)[C@H]2O)[C@@H](O)[C@H](O)[C@H]1O)[C@H]1CC[C@]2(C)[C@@H]1[C@H](O)C[C@@H]1[C@@]3(C)CC[C@H](O[C@@H]4O[C@H](CO)[C@@H](O)[C@H](O)[C@H]4O[C@@H]4O[C@H](CO)[C@@H](O)[C@H](O)[C@H]4O)C(C)(C)[C@@H]3CC[C@]12C`, the Activity (ASK) was “inactive”.
With `CC(C)=CCC[C@](C)(O[C@@H]1O[C@H](CO[C@@H]2OC[C@H](O)[C@H](O)[C@H]2O)[C@@H](O)[C@H](O)[C@H]1O)[C@H]1CC[C@]2(C)[C@@H]1[C@H](O)C[C@@H]1[C@@]3(C)CC[C@H](O[C@@H]4O[C@H](CO)[C@@H](O)[C@H](O)[C@H]4O[C@@H]4O[C@H](CO)[C@@H](O)[C@H](O)[C@H]4O)C(C)(C)[C@@H]3CC[C@]12C` the Activity (ASK) was “inactive”.
With `CC(C)=CCC[C@](C)(O[C@@H]1O[C@H](CO[C@@H]2O[C@@H](CO)[C@H](O)[C@H]2O)[C@@H](O)[C@H](O)[C@H]1O)[C@H]1CC[C@]2(C)[C@@H]1[C@H](O)C[C@@H]1[C@@]3(C)CC[C@H](O[C@@H]4O[C@H](CO)[C@@H](O)[C@H](O)[C@H]4O[C@@H]4O[C@H](CO)[C@@H](O)[C@H](O)[C@H]4O)C(C)(C)[C@@H]3CC[C@]12C` the Activity (ASK) was “inactive”.
In the case of `CC(C)=CCC[C@](C)(O[C@@H]1O[C@H](CO[C@@H]2O[C@H](CO)[C@@H](O)[C@H](O)[C@H]2O)[C@@H](O)[C@H](O)[C@H]1O)[C@H]1CC[C@]2(C)[C@@H]1[C@H](O)C[C@@H]1[C@@]3(C)CC[C@H](O[C@@H]4O[C@H](CO)[C@@H](O)[C@H](O)[C@H]4O[C@@H]4O[C@H](CO)[C@@H](O)[C@H](O)[C@H]4O)C(C)(C)[C@@H]3CC[C@]12C`, the Activity (ASK) is reported as “inactive”.
With `CC1(C)CC[C@]2(C(=O)O[C@@H]3O[C@H](CO)[C@@H](O)[C@H](O)[C@H]3O)CC[C@]3(C)C(=CC[C@@H]4[C@@]5(C)CC[C@H](O[C@@H]6O[C@H](C(=O)O)[C@@H](O)[C@H](O)[C@H]6O[C@@H]6O[C@H](CO)[C@@H](O)[C@H](O)[C@H]6O)C(C)(C)[C@@H]5CC[C@]43C)[C@@H]2C1` the Activity (ASK) was “inactive”.
In the case of `C=C[C@@]1(C)CC(=O)[C@]2(O)[C@@]3(C)[C@@H](O)CCC(C)(C)[C@@H]3[C@H](O)[C@H](OC(C)=O)[C@@]2(C)O1` [COLFORSIN], the Activity [2] is reported as 100%, the Activity [3] is reported as 50% and the EC50 [1] is reported as 0.07 µM. The Activity [4] was 100%, the Activity [5] was 15% and the Activity [6] was 0%.
In the case of `CCOC(=O)/C=C(C)/C=C/C=C(C)/C=C/c1c(C)cc(OC)c(C)c1C` [ETRETINATE], the EC50 [1] is reported as over 25 µM.
Molecule `CC(=O)OC/C=C(C)/C=C/C=C(C)/C=C/C1=C(C)CCCC1(C)C` [GILRETINOL ACETATE] has an EC50 [1] of 10 µM.
`CC1=C(/C=C/C(C)=C/C=C/C(C)=C\C(=O)O)C(C)(C)CCC1` [ISOTRETINOIN] gave an EC50 [1] of under 10 µM.
`CCNC(=O)/C=C(C)/C=C/C=C(C)/C=C/c1c(C)cc(OC)c(C)c1C` [MOTRETINIDE] gave an EC50 [1] of over 25 µM.
In the case of `CC1=C(/C=C/C(C)=C/C=C/C(C)=C/C=O)C(C)(C)CCC1` [RETINAL], the EC50 [1] is reported as under 10 µM.
Work on `COC(=O)/C=C(C)/C=C/C=C(C)/C=C/C1=C(C)CCCC1(C)C` [RETINOIC ACID METHYL ESTER] yielded an EC50 [1] of over 25 µM.
`CC1=C(/C=C/C(C)=C/C=C/C(C)=C/CO)C(C)(C)CCC1` [RETINOL] showed an EC50 [1] of over 25 µM.
Molecule `CC1=C(/C=C/C(C)=C/C=C/C(C)=C/C(=O)O)C(C)(C)CCC1` [TRETINOIN] has an Activity [7] of 20 pmol, an Activity [8] of 95% and an Activity [9] of 80%. The Activity [10] was 30%, the Activity [11] was 50% and the Activity [12] was 20%. For the same molecule, the Activity [13] was 30%, the Activity [14] was 0% and the EC50 [1] was 10 µM. The Activity [15] was 50%, the Activity [16] was 70% and the Activity [17] was 65%. For the same molecule, the Activity [18] was 0%, the Activity [19] was “Toxic” and the Activity [20] was 40%. For the same molecule, the Activity [21] was 0%, the Activity [22] was 15% and the Activity [23] was 10%. It also gave an Activity [24] of 100%.
